In US20260262643A1, “HERBICIDAL BENZOXAZINES” (FMC CORPORATION, priority 2022, published 2026):
Where two headings read alike, the source gives them in different places.

Assays:
[1] = tested on: rice; assay: Test B flooded paddy test; format: in vivo, Oryza sativa; conditions: Oryza sativa, 312 h; 250 g ai/ha, Flood, 13 days, 0 to 100 scale (0 no effect, 100 complete control); read-out: Plant response rating, Rice
How it was run: (§1)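 Species grown to 2-leaf stage; pots flooded 3 cm above soil and compound applied directly to paddy water, depth maintained throughout. After 13 days in greenhouse, plants visually rated against controls on 0–100 scale (0 no effect, 100 complete control); dash means no result.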

[2] = tested on: ducksalad; assay: Test B flooded paddy test; format: in vivo, Heteranthera limosa; conditions: Heteranthera limosa, 312 h, 250 g ai/ha, Flood, 13 days, 0 to 100 scale (0 no effect, 100 complete control); read-out: Plant response rating, Ducksalad
How it was run: as §1

[3] = tested on: ryegrass, Italian; assay: Test A preemergence; format: in vivo, Lolium multiflorum; conditions: Lolium multiflorum, pre-emergence, 240 h, read-out: Plant response rating, Ryegrass, Italian; for pest or weed control at 125 g/ha: 125 g ai/ha; for pest or weed control at 500 g/ha: 500 g ai/ha
How it was run: (§2)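 Visual injury ratings on a 0–100 scale (100 = complete control) versus untreated controls, taken 10 days after treatment in greenhouse. Preemergence: directed soil spray onto seeded loam/sand. Postemergence: foliar application at one- to two-leaf stage, plants 2–10 cm. Formulation: non-phytotoxic solvent plus surfactant.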

[4] = tested on: kochia; assay: Test A preemergence; format: in vivo, Bassia scoparia; conditions: Bassia scoparia, pre-emergence, 240 h, read-out: Plant response rating, Kochia; for pest or weed control at 125 g/ha: 125 g ai/ha; for pest or weed control at 500 g/ha: 500 g ai/ha
How it was run: as §2

[5] = tested on: pigweed, palmer; assay: Test A postemergence; format: in vivo, Amaranthus palmeri; conditions: Amaranthus palmeri, post-emergence, 240 h, postemergence, 10 days, 0 to 100 scale (0 no effect, 100 complete control); for pest or weed control at 125 g/ha: 125 g ai/ha, read-out: Pigweed, Palmer plant response rating; for pest or weed control at 500 g/ha: 500 g ai/ha, visual injury, read-out: Plant response rating, Pigweed, Palmer
How it was run: as §2

[6] = tested on: barnyardgrass; assay: Test B flooded paddy test; format: in vivo, Echinochloa crus-galli; conditions: Echinochloa crus-galli, 312 h, 250 g ai/ha, Flood, 13 days, 0 to 100 scale (0 no effect, 100 complete control); read-out: Plant response rating, Barnyardgrass
How it was run: as §1

[7] = tested on: goosegrass; assay: Test A preemergence; format: in vivo, Eleusine indica; conditions: Eleusine indica, pre-emergence, 240 h, read-out: Plant response rating, Goosegrass; for pest or weed control at 125 g/ha: 125 g ai/ha; for pest or weed control at 500 g/ha: 500 g ai/ha
How it was run: as §2

[8] = tested on: blackgrass; assay: Test A preemergence; format: in vivo, Alopecurus myosuroides; conditions: Alopecurus myosuroides, pre-emergence, 240 h, read-out: Plant response rating, Blackgrass; for pest or weed control at 125 g/ha: 125 g ai/ha; for pest or weed control at 500 g/ha: 500 g ai/ha
How it was run: as §2

[9] = tested on: corn; assay: Test A postemergence; format: in vivo, Zea mays; conditions: Zea mays, post-emergence, 240 h, postemergence, 10 days, 0 to 100 scale (0 no effect, 100 complete control); for plant injury at 125 g/ha: 125 g ai/ha, read-out: Corn plant response rating; for Corn plant response rating (crop injury, 0 = no effect, 100 = complete kill) at 500 g/ha: 500 g ai/ha, visual injury
How it was run: as §2

[10] = tested on: horseweed; assay: Test A postemergence; format: in vivo, Erigeron canadensis; conditions: Erigeron canadensis, post-emergence, 240 h, postemergence, 10 days, 0 to 100 scale (0 no effect, 100 complete control); for pest or weed control at 125 g/ha: 125 g ai/ha, read-out: Horseweed plant response rating; for pest or weed control at 500 g/ha: 500 g ai/ha, visual injury, read-out: Plant response rating, Horseweed
How it was run: as §2

[11] = tested on: blackgrass; assay: Test A postemergence; format: in vivo, Alopecurus myosuroides; conditions: Alopecurus myosuroides, post-emergence, 240 h; for pest or weed control at 125 g/ha: 125 g ai/ha, read-out: Blackgrass plant response rating; for pest or weed control at 500 g/ha: 500 g ai/ha, read-out: Plant response rating, Blackgrass
How it was run: as §2

[12] = tested on: kochia; assay: Test A postemergence; format: in vivo, Bassia scoparia; conditions: Bassia scoparia, post-emergence, 240 h, postemergence, 10 days, 0 to 100 scale (0 no effect, 100 complete control); for pest or weed control at 125 g/ha: 125 g ai/ha, read-out: Kochia plant response rating; for pest or weed control at 500 g/ha: 500 g ai/ha, visual injury, read-out: Plant response rating, Kochia
How it was run: as §2

[13] = tested on: oat, wild; assay: Test A preemergence; format: in vivo, Avena fatua; conditions: Avena fatua, pre-emergence, 240 h, read-out: Plant response rating, Oat, Wild; for pest or weed control at 125 g/ha: 125 g ai/ha; for pest or weed control at 500 g/ha: 500 g ai/ha
How it was run: as §2

[14] = tested on: foxtail, giant; assay: Test A preemergence; format: in vivo, Setaria faberi; conditions: Setaria faberi, pre-emergence, 240 h, read-out: Plant response rating, Foxtail, Giant; for pest or weed control at 125 g/ha: 125 g ai/ha; for pest or weed control at 500 g/ha: 500 g ai/ha
How it was run: as §2

[15] = visual injury after 10 days, 0 to 100 scale, 0 is no effect, 100 is complete control
[16] = postemergence, 10 days, 0 to 100 scale (0 no effect, 100 complete control)
[17] = 0 to 100 scale (0 no effect, 100 complete control), 10 days

Structure (SMILES)	plant injury at 250 g/ha [1] [%]	pest or weed control at 250 g/ha [2] [%]	pest or weed control at 125 g/ha [3, 15] [%]	pest or weed control at 125 g/ha [4, 15] [%]	pest or weed control at 125 g/ha [5] [%]	pest or weed control at 500 g/ha [5] [%]	pest or weed control at 250 g/ha [6] [%]	pest or weed control at 125 g/ha [7, 15] [%]	pest or weed control at 125 g/ha [8, 15] [%]	plant injury at 125 g/ha [9] [%]	Corn plant response rating (crop injury, 0 = no effect, 100 = complete kill) at 500 g/ha [9] [%]	pest or weed control at 125 g/ha [10] [%]	pest or weed control at 500 g/ha [10] [%]	pest or weed control at 125 g/ha [11, 16] [%]	pest or weed control at 125 g/ha [12] [%]	pest or weed control at 500 g/ha [12] [%]	pest or weed control at 125 g/ha [13, 15] [%]	pest or weed control at 125 g/ha [14, 15] [%]	also measured
Cc1cccc2c1O[C@@H](C)CN2C(=O)c1cccc(-n2cn[nH]c2=O)c1 [Compound 122, 4-[3-[[(2S)-2,3-Dihydro-2,8-dimethyl-4H-1,4-benzoxazin-4-yl]carbonyl]phenyl]-2,4-dihydro-3H-1,2,4-triazol-3-one]	0	0	20	0	20	20	0	0	10	10	60	0	0	0	30	50	0	20	pest or weed control at 500 g/ha [3, 15]: 70%; pest or weed control at 500 g/ha [4, 15]: 10%; pest or weed control at 500 g/ha [7, 15]: 90%; pest or weed control at 500 g/ha [8, 15]: 50%; pest or weed control at 500 g/ha ([11]; postemergence, 10 days, visual injury, 0 to 100 scale (0 no effect, 100 complete control)): 50%; pest or weed control at 500 g/ha [13, 15]: 20%; pest or weed control at 500 g/ha [14, 15]: 90%
Cc1cccc2c1O[C@@H](C)CN2C(=O)c1cccc(-n2cnc(C3CCCC3)n2)c1 [Compound 80, [3-(3-Cyclopentyl-1H-1,2,4-triazol-1-yl)phenyl][(2S)-2,3-dihydro-2,8-dimethyl-4H-1,4-benzoxazin-4-yl]methanone]	0	0	90	10	30	70	0	90	20	10	20	0	0	0	40	70	0	20	pest or weed control at 500 g/ha [3, 17]: 100%; pest or weed control at 500 g/ha [4, 17]: 80%; pest or weed control at 500 g/ha [7, 17]: 100%; pest or weed control at 500 g/ha [8, 17]: 40%; pest or weed control at 500 g/ha ([11]; Postemergence, 0 to 100 scale): 40%; pest or weed control at 500 g/ha [13, 17]: 10%; pest or weed control at 500 g/ha [14, 17]: 80%
